For data set [1], the target named is σ1 receptor. Conditions: Figure 1 reference compounds and fluorescent ligands; cited from earlier work.
Data set [2] addresses T1, σ2 receptor (Rattus norvegicus, UniProt Q5U3Y7).
T1 construct: from tissue; host or cells: rat liver (Wistar Hannover rats, Envigo)
T1 sequence (Q5U3Y7 1-176): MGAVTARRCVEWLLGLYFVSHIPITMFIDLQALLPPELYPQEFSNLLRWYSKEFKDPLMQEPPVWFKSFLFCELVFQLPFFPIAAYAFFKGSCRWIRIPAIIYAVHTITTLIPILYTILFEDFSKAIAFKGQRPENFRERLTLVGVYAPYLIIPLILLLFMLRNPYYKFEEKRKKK
Kind of data set: σ2 receptor radioligand binding assay with [3H]DTG, rat liver membranes. Conditions: for Ki: [3H]DTG with 1 μM (+)-pentazocine, rat liver membranes, mean of at least two experiments in duplicate, read-out: Ki ± SEM σ2; for σ2 selectivity over σ1: from Ki values at σ1 and σ2. As for the experimental part: (§1) All of the procedures for the binding assays were previously described. σ1 and σ2 receptor binding assays were carried out according to the literature.[25] […] Incubations were stopped by addition of 1 mL of ice-cold buffer [50 mM TRIS (pH 8.0)], and then the suspension was filtered through GF/B presoaked in 0.3% polyethylenimine (PEI) for at least 60 min prior to use. The filters were washed twice with 1 mL of ice-cold buffer. […] Incubations were stopped by addition of 1 mL of ice-cold buffer [50 mM TRIS (pH 8.0)], and then the suspension was filtered through GF/B presoaked in 0.5% polyethylenimine (PEI) for at least 60 min prior to use. The filters were washed twice with 1 mL of ice-cold buffer. […] Scatchard parameters (Kd and Bmax) and apparent inhibition constants (Ki) were determined by nonlinear curve fitting using GraphPad Prism (version 5.0).[64]

Data set [3] can be described thus: Fluorescence spectroscopy and quantum yield measurements. The data set is classed as physicochemical.
Data set [4] concerns the target T2, σ1 receptor (Cavia porcellus, UniProt Q60492).
T2 construct: from tissue; host or cells: guinea pig brain without cerebellum (male Dunkin guinea pigs, Envigo)
Put plainly: σ1 receptor radioligand binding assay with (+)-[3H]pentazocine, guinea pig brain membranes. Conditions: mean of at least two experiments in duplicate, read-out: Ki ± SEM σ1. As for the experimental part:
as §1

The target of data set [5] is σ2 receptor. Conditions: cited from earlier work.
The target of data set [6] is T3, σ2 receptor (Homo sapiens, UniProt Q5BJF2). Kind of data set: Flow cytometry studies in MCF7 and MCF7KO cells. The format is cell-based. More on the design: This cell line was selected on the basis of its high σ2 receptor expression levels; endogenous in cells; host or cells: MCF7 (and MCF7KO, partial TMEM97 knockdown by shRNA). Conditions: flow cytometry, data not shown. As for the experimental part: Subsequently, the cells were harvested by trypsinization and resuspended in 250 μL of FACS-PBS. The fluorescence intensity was measured by flow cytometry using a BD LSRFortessaTM X-20 cell analyzer (Becton Dickinson, Palo Alto, CA). For this, in total 20000 cells per sample were evaluated. The results were analyzed and quantified using BD FACSDivaTM software.
T3 sequence (Q5BJF2 whole entry): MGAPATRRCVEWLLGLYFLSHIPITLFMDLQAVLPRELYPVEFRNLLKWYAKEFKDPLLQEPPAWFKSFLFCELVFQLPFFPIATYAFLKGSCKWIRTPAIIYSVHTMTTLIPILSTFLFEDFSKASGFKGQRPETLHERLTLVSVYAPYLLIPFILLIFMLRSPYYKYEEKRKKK
On the technique in general: In flow cytometry, cells or beads pass a laser one at a time.

Data set [7] concerns the target T3, σ2 receptor. Kind of data set: Flow cytometry σ2 receptor binding assay with fluorescent ligand in place of the radioligand, MCF7 cells. More on the design: This cell line was selected on the basis of its high σ2 receptor expression levels; endogenous in cells; host or cells: MCF7 (and MCF7KO, partial TMEM97 knockdown by shRNA).
Protocol: Similarly, 2 × 10^5 MCF7 cells/well were seeded in a 12-well plate and allowed to recover for 24 h at 37 °C.
At the end of the incubation periods, cells were washed twice with PBS, detached with 200 mL of Cell Dissociation Solution (Sigma Chemical Co.) for 10 min at 37 °C, centrifuged at 13000g for 5 min, and resuspended in 500 mL of PBS. The fluorescence was recorded using a Bio-Guava easyCyte 5 Flow Cytometry System (Millipore, Billerica, MA), with a 530 nm band-pass filter. For each analysis, 50000 events were collected and analyzed with the InCyte software (Millipore).
The mark [8] stands for this setting: Figure 1 reference compounds and fluorescent ligands, read-out: σ2 Ki.

The text below walks through data of PMC10041534, “Development of Fluorescent 4-[4-(3H-Spiro[isobenzofuran-1,4′-piperidin]-1′-yl)butyl]indolyl Derivatives as High-Affinity Probes to Enable the Study of σ Receptors via Fluorescence-Based Techniques” (Journal of Medicinal Chemistry, 2023).

Where “and” joins values, the source holds several entries; their conditions need not be identical. Equal values may be shown once. Read-outs that look alike come from different tables or passages of the source. Marks after values point to notes of the source that are not given here.

T2 sequence (Q60492 whole entry): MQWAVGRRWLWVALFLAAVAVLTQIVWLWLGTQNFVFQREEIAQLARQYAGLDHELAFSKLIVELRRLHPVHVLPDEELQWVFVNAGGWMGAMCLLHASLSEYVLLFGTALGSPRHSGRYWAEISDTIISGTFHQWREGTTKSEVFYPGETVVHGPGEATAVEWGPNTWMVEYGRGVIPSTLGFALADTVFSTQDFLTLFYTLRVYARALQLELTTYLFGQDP

As to `COc1cc2c(cc1OC)CN(CCCN1CCc3c(OCCCCCCN4C(=O)c5ccc(N(C)C)cc5C4=O)cccc3C1=O)CC2` [Compound 3], the Ki at σ1 receptor [1] was more than 5 µM.

In the case of `O=C(COc1ccc(-c2ccc3n2[B-](F)(F)[N+]2=C(c4cccs4)C=CC2=C3)cc1)NCCCCCCn1cc(CCCCN2CCC3(CC2)OCc2ccccc23)c2ccccc21` [Compound 18, N-(6-{3-[4-(3H-Spiro[isobenzofuran-1,4′-piperidin]-1′-yl)butyl]-1H-indol-1-yl}hexyl)-2-{4-[5,5-difluoro-7-(thiophen-2-yl)-5H-5λ^4,6λ^4-dipyrrolo[1,2-c:2′,1′-f][1,3,2]diazaborinin-3-yl]phenoxy}acetamide], the Ki on σ2 receptor [2] was determined as 0.22 ± 0.012 µM. Besides, in data set [3] (dissolved in CH3OH), the λem is listed as 630 ^b nm and the λex is 587 ^b nm. For the same molecule, the Ki at σ1 receptor [4] turned out to be 0.473 ± 0.03 µM.

On to `c1ccc2c(c1)COC21CCN(CCCCn2ccc3ccccc32)CC1` [Compound 8, reference compound], for which the “σ2 selectivity over σ1” value on σ2 receptor [2] stood at 60 fold. Besides, the Ki on σ2 receptor [5] (setting [8]) was 0.00043 µM.

In the case of `CN(C)c1ccc2c(c1)C(=O)N(c1ccc3ccn(CCCCN4CCC5(CC4)OCc4ccccc45)c3c1)C2=O` [Compound 23, 2-{1-[4-(3H-Spiro[isobenzofuran-1,4′-piperidin]-1′-yl)butyl]-1H-indol-6-yl}-5-(dimethylamino)isoindoline-1,3-dione], at σ2 receptor [2], the inhibitory constant (Ki) came out at 0.00507 ± 0.00107 µM and the “σ2 selectivity over σ1” value worked out at 60 fold. On σ2 receptor [6], the “signals in MCF7 cells” value was “dose-dependent signals” and the “signals in MCF7 cells upon administration of 2” value (“signals … of 2” below) is “abated”. In data set [3] (CHCl3), this molecule showed a quantum yield of 1.31%, a λem of 490 nm and a λex of 395 nm. In addition, the Ki at σ1 receptor [4] worked out at 0.296 ± 0.071 µM.

As to `CN(C)c1ccc2c(c1)C(=O)N(CCCn1cc(CCCCN3CCC4(CC3)OCc3ccccc34)c3ccccc31)C2=O` [Compound 16, 2-(3-{3-[4-(3H-Spiro[isobenzofuran-1,4′-piperidin]-1′-yl)butyl]-1H-indol-1-yl}propyl)-5-(dimethylamino)isoindoline-1,3-dione], on σ2 receptor [2], the Ki was determined as 0.0101 ± 0.0011 µM and the “σ2 selectivity over σ1” value was 3–10 fold. Moreover, at σ2 receptor [6], the “signals in MCF7 cells” value was “dose-dependent signals” and the “signals … of 2” value is given as “abated”. In data set [3] (CHCl3), the quantum yield is reported as 6.85%, the λem was determined as 490 nm and the λex turned out to be 395 nm. For the same molecule, at σ1 receptor [4], the Ki came out at 0.0393 ± 0.009 µM.

`COc1cc2c(cc1OC)CN(CCCN1CCc3c(OC)cccc3C1=O)CC2` [Compound 2]: the Ki at σ1 receptor [1] is 2.44 µM; at σ2 receptor [7] (displacement of compound 19 (100 nM)), 0.00407 µM; at σ2 receptor [7] (displacement of compound 29 (100 nM)) it was 0.00504 µM; on σ2 receptor [5] (setting [8]), 0.00424 µM.

For the molecule `C[N+]1=C(/C=C/C=C/C=C/C=C2\N(CCCCCC(=O)NCCCCCCn3cc(CCCCN4CCC5(CC4)OCc4ccccc45)c4ccccc43)c3ccccc3C2(C)C)C(C)(C)c2ccccc21.[I-]` [Compound 20, 2-{(1E,3E,5E)-7-[(E)-1-{6-[(6-{3-[4-(3H-Spiro[isobenzofuran-1,4′-piperidin]-1′-yl)butyl]-1H-indol-1-yl}hexyl)amino]-6-oxohexyl}-3,3-dimethylindolin-2-ylidene]hepta-1,3,5-trien-1-yl}-1,3,3-trimethyl-3H-indol-1-ium], the inhibition constant Ki on σ2 receptor [2] worked out at 0.0398 ± 0.0042 µM. In data set [3] (CHCl3), this molecule gave a quantum yield of 39.08%, a λem of 787 nm and a λex of 762 nm. Further, the inhibition constant (Ki) on σ1 receptor [4] is 0.0888 ± 0.0151 µM.

Take `C[N+]1=C(/C=C/C=C/C=C/C=C2/N(CCCCCC(=O)Nc3ccc4ccn(CCCCN5CCC6(CC5)OCc5ccccc56)c4c3)c3ccccc3C2(C)C)C(C)(C)c2ccccc21.[I-]` [Compound 30, 2-[(1E,3E,5E)-7-{(Z)-1-[6-({1-[4-(3H-Spiro[isobenzofuran-1,4′-piperidin]-1′-yl)butyl]-1H-indol-6-yl}amino)-6-oxohexyl]-3,3-dimethylindolin-2-ylidene}hepta-1,3,5-trien-1-yl]-1,3,3-trimethyl-3H-indol-1-ium]: at σ2 receptor [2], the Ki was found to be 0.0394 ± 0.0061 µM and the “σ2 selectivity over σ1” value is approximately 10 fold. In addition, in data set [3] (CHCl3), the quantum yield was determined as 40.24%, the λem was found to be 787 nm and the λex was determined as 762 nm. In addition, on σ1 receptor [4], the Ki was 0.569 ± 0.085 µM.

Regarding `CC1CCN(CCCCc2cccc3cc(OCCCCCCN4C(=O)c5ccc(N(C)C)cc5C4=O)ccc23)CC1` [Compound 5], the figures for the Ki on σ1 receptor [1] and on σ2 receptor [5] (setting [8]) were 0.0052 µM and 0.0456 µM, respectively.

With `O=C(COc1ccc(C2=[N+]3C(=Cc4ccc(-c5cccs5)n4[B-]3(F)F)C=C2)cc1)Nc1ccc2ccn(CCCCN3CCC4(CC3)OCc3ccccc34)c2c1` [Compound 28, N-{1-[4-(3H-Spiro[isobenzofuran-1,4′-piperidin]-1′-yl)butyl]-1H-indol-6-yl}-2-{4-[5,5-difluoro-7-(thiophen-2-yl)-5H-5λ^4,6λ^4-dipyrrolo[1,2-c:2′,1′-f][1,3,2]diazaborinin-3-yl]phenoxy}acetamide], in data set [3] (dissolved in CH3OH), the λem was 630 ^b nm and the λex is given as 587 ^b nm. Moreover, the Ki on σ1 receptor [4] was more than 5 µM.

Regarding `CC1CCN(CCOc2ccc(Cl)cc2)CC1` [Compound 31, 1-[2-(4-chlorophenoxy)ethyl]-4-methylpiperidine], the Ki at σ2 receptor [5] (read-out: Ki at the σ2 receptor) was 0.239 µM.

With `CN(C)c1ccc2c(c1)C(=O)N(CCCCCCn1cc(CCCCN3CCC4(CC3)OCc3ccccc34)c3ccccc31)C2=O` [Compound 17, 2-(6-{3-[4-(3H-Spiro[isobenzofuran-1,4′-piperidin]-1′-yl)butyl]-1H-indol-1-yl}hexyl)-5-(dimethylamino)isoindoline-1,3-dione], at σ2 receptor [2], the Ki came to 0.00384 ± 0.0008 µM and the “σ2 selectivity over σ1” value was 3–10 fold. Besides, at σ2 receptor [6], the “signals in MCF7 cells” value is “dose-dependent signals” and the “signals … of 2” value was “abated”. Further, in data set [3] (CHCl3), the quantum yield is 6.85% and 6.80%; the λem was determined as 490 nm; the λex is on record as 395 nm. At σ1 receptor [4], the Ki stood at 0.0381 ± 0.0052 µM.

In general, Ki refers to the equilibrium dissociation constant of an inhibitor or competing ligand from its target.
